This note sets out measurements from patent US12686687B2, “Compounds and uses thereof” (Foghorn Therapeutics Inc., priority 2019, dated 2026).

Structures are written as SMILES.

The first experiment deals with T1, Nanoluciferase-BRD9 fusion protein (3×FLAG-NLuc-BRD9) in SYO-1 cells (Homo sapiens, UniProt Q9H8M2).
T1 construct: expressed in transfected cells; host or cells: SYO-1
T1 sequence (Q9H8M2 1-597): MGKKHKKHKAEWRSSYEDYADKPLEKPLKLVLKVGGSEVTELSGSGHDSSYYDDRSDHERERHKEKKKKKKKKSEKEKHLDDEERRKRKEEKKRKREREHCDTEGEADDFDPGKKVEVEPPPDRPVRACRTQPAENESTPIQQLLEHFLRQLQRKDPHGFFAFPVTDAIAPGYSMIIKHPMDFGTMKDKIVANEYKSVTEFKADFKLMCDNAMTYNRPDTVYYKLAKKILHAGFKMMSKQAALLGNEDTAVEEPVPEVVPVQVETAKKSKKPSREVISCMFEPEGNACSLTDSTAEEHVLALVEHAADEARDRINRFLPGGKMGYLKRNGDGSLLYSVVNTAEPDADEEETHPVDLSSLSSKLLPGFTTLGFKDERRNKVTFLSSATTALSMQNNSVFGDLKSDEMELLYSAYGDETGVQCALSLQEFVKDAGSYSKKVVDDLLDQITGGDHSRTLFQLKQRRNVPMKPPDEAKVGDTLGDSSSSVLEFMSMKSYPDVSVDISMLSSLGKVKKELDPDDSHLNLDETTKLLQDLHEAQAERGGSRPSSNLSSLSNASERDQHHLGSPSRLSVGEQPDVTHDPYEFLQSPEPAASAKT
The experiment is described as follows: SYO1 BRD9 NanoLuc degradation assay. The experiment is classed as cell-based. The following applies: Table 6B; SYO-1 cells expressing 3×FLAG-NLuc-BRD9, 6 hours incubation, 1 μM top dose; read-out: SYO1 BRD9-NanoLuc degradation IC50. On the procedure:
Procedure: A stable SYO-1 cell line expressing 3×FLAG-NLuc-BRD9 was generated. On day 0 cells were seeded in 30 μL media into each well of 384-well cell culture plates. The seeding density was 8000 cells/well. On day 1, cells were treated with 30 nL DMSO or 30 nL of 3-fold serially DMSO-diluted compounds (10 points in duplicates with 1 μM as final top dose). Subsequently plates were incubated for 6 hours in a standard tissue culture incubator and equilibrated at room temperature for 15 minutes. Nanoluciferase activity was measured by adding 15 μL of freshly prepared Nano-Glo Luciferase Assay Reagent (Promega N1130), shaking the plates for 10 minutes and reading the bioluminescence using an EnVision reader. • Results: The Inhibition % was calculated using the following formula: % Inhibition=100×(LumHC−LumSample)/(LumHC−LumLC). DMSO treated cells are employed as High Control (HC) and 1 μM of a known BRD9 degrader standard treated cells are employed as Low Control (LC).
Regarding `COc1cc(-c2cn(C)c(=O)c3cc(C(=O)NC4CC5CN(C(=O)CCN6CCN(c7ccc8c(c7)C(=O)N(C7CCC(=O)NC7=O)C8=O)CC6)CC5C4)sc23)cc(OC)c1CN(C)C` (stereo not drawn) [Compound D76], the DC50 is over 10 nM.

Take `COc1cc(-c2cn(C)c(=O)c3cc(C(=O)NC4CCN(C)CC4(F)F)sc23)cc(OC)c1CN(C)CC(=O)NCCOCCOc1cccc2c1C(=O)N(C1CCC(=O)NC1=O)C2=O` (stereo not drawn) [Compound D30]: the DC50 is over 10 nM.

`COc1cc(-c2cn(C)c(=O)c3cc(NC(=O)C4CCN(CCCCCOc5cccc6c5C(=O)N(C5CCC(=O)NC5=O)C6=O)CC4(F)F)sc23)cc(OC)c1CN(C)C` (stereo not drawn) [Compound D59]: the DC50 was over 10 nM.

As to `COc1cc(-c2cn(C)c(=O)c3cc(C(=O)NC4CCC5CN(CCN6CCN(c7ccc8c(c7)C(=O)N(C7CCC(=O)NC7=O)C8=O)CC6)CC54)sc23)cc(OC)c1CN(C)C` (stereo not drawn) [Compound D38], the DC50 was under 10 nM.

For `COc1cc(-c2cn(C)c(=O)c3cc(C(=O)NC4CCCN(CCCCCOc5cccc6c5C(=O)N(C5CCC(=O)NC5=O)C6=O)CC4)sc23)cc(OC)c1CN(C)C` (stereo not drawn) [Compound D88], the DC50 is over 10 nM.

Take `COc1cc(-c2cn(C)c(=O)c3cc(C(=O)NCC4CCN(CCCCOc5cccc6c5C(=O)N(C5CCC(=O)NC5=O)C6=O)CC4)sc23)cc(OC)c1CN(C)C` (stereo not drawn) [Compound D81]: the DC50 was over 100 nM.

Take `COc1cc(-c2cn(C)c(=O)c3cc(C(=O)NC4CCC5CN(C(=O)CCN6CCN(c7ccc8c(c7)C(=O)N(C7CCC(=O)NC7=O)C8=O)CC6)CC54)sc23)cc(OC)c1CN(C)C` (stereo not drawn) [Compound D58]: the DC50 is over 10 nM.

Regarding `COc1cc(-c2cn(C)c(=O)c3cc(C(=O)NC4CC5CC4CN5CCN4CCN(c5ccc6c(c5)C(=O)N(C5CCC(=O)NC5=O)C6=O)CC4)sc23)cc(OC)c1CN(C)C` (stereo not drawn) [Compound D70], the DC50 is under 10 nM.

Consider `COc1cc(-c2cn(C)c(=O)c3cc(C(=O)NC4CCC(N(C)CCCCOc5cccc6c5C(=O)N(C5CCC(=O)NC5=O)C6=O)CC4)sc23)cc(OC)c1CN(C)C` (stereo not drawn) [Compound D80], for which the DC50 is over 100 nM.

Regarding `COc1cc(-c2cn(C)c(=O)c3cc(C(=O)NC4CC5CC4CN5CCCCCOc4cccc5c4C(=O)N(C4CCC(=O)NC4=O)C5=O)sc23)cc(OC)c1CN(C)C` (stereo not drawn) [Compound D82], the DC50 was over 100 nM.

Consider `COc1cc(-c2cn(C)c(=O)c3cc(C(=O)NCC4CC5(C4)CN(CCN4CCN(c6ccc7c(c6)C(=O)N(C6CCC(=O)NC6=O)C7=O)CC4)C5)sc23)cc(OC)c1CN(C)C` (stereo not drawn) [Compound D53], for which the DC50 was over 10 nM.

As for `COc1cc(-c2cn(C)c(=O)c3cc(C(=O)NC4CCN(C)CC4(F)F)sc23)cc(OC)c1CN1CCN(c2ccc3c(c2)CN(C2CCC(=O)NC2=O)C3=O)CC1` (stereo not drawn) [Compound D22], the DC50 was under 10 nM.

Turning to `COc1cc(-c2cn(C)c(=O)c3cc(C(=O)NCC4CC5(CCN(C(=O)CCN6CCN(c7ccc8c(c7)C(=O)N(C7CCC(=O)NC7=O)C8=O)CC6)CC5)CO4)sc23)cc(OC)c1CN(C)C` (stereo not drawn) [Compound D48], the DC50 was over 10 nM.

Take `COc1cc(-c2cn(C)c(=O)c3cc(C(=O)NC4CCC45CCN(CCCN4CCN(c6ccc7c(c6)C(=O)N(C6CCC(=O)NC6=O)C7=O)CC4)CC5)sc23)cc(OC)c1CN(C)C` (stereo not drawn) [Compound D55]: the DC50 was over 100 nM.

Still in this experiment, the particulars now being: Table 6C; SYO-1 cells expressing 3×FLAG-NLuc-BRD9, 6 hours incubation, 1 μM top dose; read-out: SYO1 BRD9-NanoLuc degradation IC50.
For the compound `COc1cc(-c2cn(C)c(=O)c3ncsc23)cc(OC)c1CN1CCC2(CC1)CN(c1ccc3c(c1)C(=O)N(C1CCC(=O)NC1=O)C3=O)C2` (stereo not drawn) [Compound D202], the DC50 was under 10 nM.

On to `COc1cc(-c2cn(C)c(=O)c3cc(C(=O)NC4CCN(c5ccc6c(c5)C(=O)N(C5CCC(=O)NC5=O)C6)CC4(F)F)sc23)cc(F)c1CN(C)C` (stereo not drawn) [Compound D118], for which the DC50 is under 10 nM.

With `COc1cc(-c2cn(C)c(=O)c3cc(C(=O)NC4CCN(CCN5CCN(c6ccc7c(c6)C(=O)N(C6CCC(=O)NC6=O)C7)CC5)CC4(F)F)sc23)cc(OC)c1CN(C)C` (stereo not drawn) [Compound D200], the DC50 was under 10 nM.

For the compound `Cn1cc(-c2cccc(C(F)(F)F)c2)c2oc(C(=O)NC3CCN(c4ccc5c(c4)C(=O)N(C4CCC(=O)NC4=O)C5)CC3)cc2c1=O` (stereo not drawn) [Compound D211], the DC50 is over 10 nM.

With `COc1cc(OC)cc(-c2cn(C)c(=O)c3cc(C(=O)NC4CN(c5ccc6c(c5)C(=O)N(C5CCC(=O)NC5=O)C6)C4)sc23)c1` (stereo not drawn) [Compound D115], the DC50 is under 10 nM.

Turning to `COc1cc(-c2cn(C)c(=O)c3cc(C(=O)NC4CN(C5CCN(c6ccc7c(c6)CN(C6CCC(=O)NC6=O)C7=O)CC5)CC4(F)F)sc23)cc(OC)c1CN(C)C` (stereo not drawn) [Compound D181], the DC50 is under 10 nM.

`COc1cc2c(=O)n(C)cc(-c3cc(OC)c(CN4CCC5(CC4)CN(c4ccc6c(c4)C(=O)N(C4CCC(=O)NC4=O)C6)C5)c(OC)c3)c2s1` (stereo not drawn) [Compound D120]: the DC50 was under 10 nM.

For `COc1cc(-c2cn(C)c(=O)c3cc(C(=O)NC4CCN(CCN5CCN(c6ccc7c(c6)CN(C6CCC(=O)NC6=O)C7=O)CC5)CC4(F)F)sc23)cc(OC)c1CN(C)C` (stereo not drawn) [Compound D196], the DC50 is under 10 nM.

Turning to `CNc1cc2c(=O)n(C)cc(-c3cc(OC)c(CN4CCC5(CC4)CN(c4ccc6c(c4)C(=O)N(C4CCC(=O)NC4=O)C6)C5)c(OC)c3)c2s1` (stereo not drawn) [Compound D97], the DC50 was under 10 nM.

With `COc1cc(-c2cn(C)c(=O)c3cc(C(=O)NC4CN(C5CCN(c6ccc7c(c6)C(=O)N(C6CCC(=O)NC6=O)C7=O)CC5)CC4(F)F)sc23)cc(OC)c1CN(C)C` (stereo not drawn) [Compound D187], the DC50 was under 10 nM.

Consider `COc1cc(-c2cn(C)c(=O)c3sncc23)cc(OC)c1CN1CC(CN2CCC3(CC2)CN(c2ccc4c(c2)C(=O)N(C2CCC(=O)NC2=O)C4)C3)C1` (stereo not drawn) [Compound D201], for which the DC50 is under 10 nM.

For the compound `COc1cc(-c2cn(C)c(=O)c3cc(C#N)sc23)cc(OC)c1CN1CCC(CN2CCC3(CC2)CN(c2ccc4c(c2)C(=O)N(C2CCC(=O)NC2=O)C4)C3)CC1` (stereo not drawn) [Compound D101], the DC50 was under 10 nM.

Turning to `Cn1cc(-c2cccc(C(F)(F)F)c2)c2sc(C(=O)NC3CN(c4ccc5c(c4)C(=O)N(C4CCC(=O)NC4=O)C5)C3)cc2c1=O` (stereo not drawn) [Compound D103], the DC50 is under 10 nM.

`CCc1cc(OC)cc(-c2cn(C)c(=O)c3cc(C(=O)NC4CCN(c5ccc6c(c5)C(=O)N(C5CCC(=O)NC5=O)C6)CC4(F)F)sc23)c1` (stereo not drawn) [Compound D129]: the DC50 was under 10 nM.

Regarding `COc1cc(-c2cn(C)c(=O)c3scnc23)cc(OC)c1CN1CCC2(CC1)CN(c1ccc3c(c1)C(=O)N(C1CCC(=O)NC1=O)C3)C2` (stereo not drawn) [Compound D215], the DC50 is under 10 nM.

In the case of `COc1cc(-c2cn(C)c(=O)c3ccsc23)cc(OC)c1CN1CCC2(CC1)CN(c1ccc3c(c1)CN(C1CCC(=O)NC1=O)C3=O)C2` (stereo not drawn) [Compound D178], the DC50 was under 10 nM.

For `COc1cc(-c2cn(C)c(=O)c3ccsc23)cc(OC)c1CN1CCC2(CC1)CN(c1ccc3c(c1)C(=O)N(C1CCC(=O)N(COC(=O)[C@@H](N)C(C)C)C1=O)C3=O)C2` (stereo partly drawn) [Compound D107], the DC50 was under 10 nM.

As to `COc1cc(-c2cn(C)c(=O)c3cc(C(=O)Nc4cccc(OC5CCC(=O)NC5=O)c4)sc23)cc(OC)c1CN(C)C` (stereo not drawn) [Compound D95], the DC50 is over 100 nM.

For the compound `COc1cc(-c2cn(C)c(=O)c3cc(C(=O)NC4CCN(C5CCN(c6ccc7c(c6)C(=O)N(C6CCC(=O)NC6=O)C7)CC5)CC4)sc23)cc(OC)c1CN(C)C` (stereo not drawn) [Compound D150], the DC50 was under 10 nM.

Regarding `COc1cc(-c2cn(C)c(=O)c3ncsc23)cc(OC)c1CN1CC(Oc2ccc3c(c2)C(=O)N(C2CCC(=O)NC2=O)C3)C1` (stereo not drawn) [Compound D212], the DC50 was under 10 nM.

For the compound `COc1cc(-c2cn(C)c(=O)c3cc(C#N)sc23)cc(OC)c1CN1CC(C#Cc2ccc3c(c2)C(=O)N(C2CCC(=O)NC2=O)C3)C1` (stereo not drawn) [Compound D91], the DC50 was under 10 nM.

For `COc1cc(-c2cn(C)c(=O)c3cc(C)sc23)cc(OC)c1CN1CCC2(CC1)CN(c1ccc3c(c1)C(=O)N(C1CCC(=O)NC1=O)C3)C2` (stereo not drawn) [Compound D132], the DC50 is under 10 nM.

Regarding `COc1cc(-c2cn(C)c(=O)c3ccsc23)cc(OC)c1CN1CCC(CN2CCC3(CC2)CN(c2ccc4c(c2)C(=O)N(C2CCC(=O)NC2=O)C4)C3)CC1` (stereo not drawn) [Compound D99], the DC50 was under 10 nM.

`COc1cc(Cl)cc(-c2cn(C)c(=O)c3cc(C(=O)NC4CCN(c5ccc6c(c5)C(=O)N(C5CCC(=O)NC5=O)C6)CC4)sc23)c1` (stereo not drawn) [Compound D93]: the DC50 was under 10 nM.

`COc1cc(-c2cn(C)c(=O)c3ccsc23)cc(OC)c1CN1CCN(c2ccc3c(c2)C(=O)N(C2CCC(=O)NC2=O)C3)CC1` (stereo not drawn) [Compound D194]: the DC50 is under 10 nM.
